Assay results published in patent US9393255B2, “Pharmaceutical compositions of cytidine analogs and methods of use thereof” (Celgene Corporation, priority 2011, dated 2016).
Values after ≈ are worked out from the molar mass of the structure shown. “Also recorded” adds a separate entry of the source.

Assays:
MDS, AML, CML, ALL, NHL = details: treatment of MDS; cited from earlier work
[1] = human pharmacokinetics of 5-azacytidine after SC or IV dosing; assay type: in vivo
[2] = cold water reconstitution of Vidaza with frozen storage, Study 2: HPLC assay, redispersion time, appearance (Example G); assay type: physicochemical; details: reconstituted with refrigerated WFI, stored frozen (−20° C.)
Experimental: The study was performed in a similar fashion as Example F, and the cold water reconstituted suspension was then stored under frozen conditions. […] A study to determine the thawing time of the frozen suspensions at 25° C. was also conducted.
Testing was performed using two lots of homogenized drug product. […] The second study analyzed the reconstituted drug product after storage of reconstituted drug product at −20° C. utilizing hold times of 24, 48, and 72 hours followed by a post hold time of 45 minutes at 25° C. to allow for thawing as determined in the first study.
Analytical Methods: The amount of azacitidine and related impurities contained in azacitidine samples was determined utilizing High Performance Liquid Chromatography (HPLC). Two methods were used to complete this testing. […] Reconstitution and redispersibility times were determined in a manner similar to that as described in Example F. Appearance of the suspension was determined visually. […]
An appropriate number of homogenized azacitidine drug product vials were reconstituted with refrigerated WFI as described above, and placed in a freezer (−20° C.). […] After thawing, the contents of the vials were analyzed, for example, by HPLC. […] In addition to the frozen vials, a set of drug product vials were reconstituted and diluted, and immediately analyzed for use as T0 (baseline). […]

pKa of 5-azacytidine = assay type: physicochemical; details: 25° C.
Description: (§1) Generally at lower temperature a smaller amount of 5-azacytidine may be dissolved in water.

[3] = cold water reconstitution of Vidaza with refrigerated storage: potency, redispersibility time, appearance (Example F); assay type: physicochemical; details: for stability time (not more than 3% loss of potency from Time 0): cold WFI (2-8° C.) reconstitution, refrigerated (2-8° C.) storage
Experimental: Sterility testing was performed at the end of the study. Stability of azacitidine was defined in this study as not more than 3% loss of potency from Time 0 (e.g., baseline).
Analytical methods and stability testing: The potency of azacitidine was determined by quantitating the sample against an external standard utilizing reverse phase chromatography with UV detection, in accordance with ICH guidelines. The determination of suspension appearance for redispersibility time was performed visually, in accordance with ICH guidelines.
Stability testing of azacitidine was performed by utilizing validated regulatory accepted analytical methods in accordance with ICH guidelines. These studies were conducted at conditions which encompass long-term, intermediate and accelerated storage of the drug product over a period of time.
Materials and methods: Two lots of sterile commercial scale azacitidine drug product, each nearing the end of their expiry period of 48 months, were used for the study. Each lot of drug product was prepared as a homogeneous mixture of lyophilized powder and placed in labeled vials in preparation for reconstitution. Vials from each lot of azacitidine drug product were then reconstituted with 4 mL of refrigerated (2-8° C.) WFI and immediately placed in refrigerated storage (2-8° C.). After refrigerated storage for 16, 18, 20, and 22 hours, reconstituted vials of azacitidine were removed from refrigeration and placed at 25° C. for 30 minutes. Equilibration time to 25° C. for refrigerated azacitidine suspension was determined to be 30 minutes. […] Stability of azacitidine was defined in this study as not more than 3% loss of potency from Time 0 (e.g., baseline). Sterility of the refrigerated drug product was assessed for reconstituted vials stored at 2-8° C. at end of study.

[4] = aqueous solubility of 5-azacytidine; assay type: physicochemical; details: water
Experimental: In one embodiment, the reconstituted liquid dosage form is allowed to warm to room temperature (e.g., within a period of less than about 30 minutes) before parenteral use. […] In some embodiments, when the dosage form is at room temperature, about one-half of 5-azacytidine is dissolved, with about the other half present as solid in the suspension.
as §1

[5] = stability of 5-azacytidine suspension reconstituted with cold Water for Injection, stored refrigerated or frozen (Example E); assay type: physicochemical
Experimental: The reconstituted suspension of 5-azacytidine was then stored either refrigerated or frozen.
In one experiment, the suspension was stored at a temperature of between about 2° C. and about 8° C. for up to 72 hours, and then warmed to about 25° C. over a period of about 30 minutes. In another experiment, the suspension was stored at a temperature of about −20° C. for up to 7 days, and then thawed and stored refrigerated for up to 48 hours, and then warmed to about 25° C. over a period of about 30 minutes.
The dry lyophilized powder was stored in the vials under normal conditions for about 48 months prior to use in this experiment.
The contents of the vials were reconstituted with cold Water for Injection. Prior to reconstitution, the Water for Injection was stored refrigerated for at least 24 hours. All vials were reconstituted into an opaque, white suspension within 20 seconds.
The vials were stored at conditions described above for a certain time. The contents of all vials were re-dispersed into an opaque, white suspension within 20 seconds of shaking after each storage conditions or time points described in this example.

[6] = aqueous degradation kinetics of 5-azacytidine (solution and suspension); assay type: physicochemical
Experimental: The aqueous degradation kinetics of 5-azacytidine was evaluated. […] At lower temperatures, the degradation of 5-azacytidine is slower.

higher-risk MDS = details: Phase III, subcutaneous, subjects with higher-risk MDS; cited from earlier work
leukemic mouse model = assay: activity and toxicity of degradation products in a leukemic mouse model; assay type: in vivo

Compound: Nc1ncn([C@H]2C[C@H](O)[C@@H](CO)O2)c(=O)n1 [5-aza-2′-deoxycytidine]
- anti-tumor activity in clinical trials (MDS, AML, CML, ALL, NHL): significant anti-tumor activity

Compound: Nc1ncn([C@@H]2O[C@H](CO)[C@@H](O)[C@H]2O)c(=O)n1 [5-azacytidine, 4-amino-1-β-D-ribofuranosyl-1,3,5-triazin-2(1H)-one]
- Cmax for SC dosing ([1]; SC): rapid
- bioavailability ([1]; in vivo, subcutaneous, SC vs IV, read-out: relative bioavailability of SC dose (relative to IV dose)): ~90%
- anti-tumor activity in clinical trials (MDS, AML, CML, ALL, NHL): significant anti-tumor activity
- stability time under frozen storage [2]: up to 72 hours
- pKa (pKa of 5-azacytidine; higher of the two pKa values): ~10.2
- pKa (pKa of 5-azacytidine; lower of the two pKa values): ~2.8
- redispersion time ([3]; 16, 18, 20 and 22 hr refrigerated storage and 30 minutes equilibration to 25° C.): 0.3 min
- appearance of suspension ([3]; 16, 18, 20 and 22 hr refrigerated storage and 30 minutes equilibration to 25° C., listed as Azacitidine): fine white particles in suspension
- appearance of suspension ([3]; 16, 18, 20 and 22 hr refrigerated storage and 30 minutes equilibration to 25° C., listed as azacitidine): fine white particles in suspension and the absence of clumps
- stability time (not more than 3% loss of potency from Time 0) ([3]; listed as Azacitidine): about 22 hours
- stability time (not more than 3% loss of potency from Time 0) ([3]; listed as azacitidine): 22 h
- prolongation of stability time versus usual reconstitution ([3]; cold WFI reconstitution with refrigerated storage, 8 to 22 hours, listed as azacitidine): about a threefold prolongation; also recorded: nearly threefold
- maximum loss of potency ([3]; cold water (2-8° C.) reconstitution, refrigerated storage baseline to 22 hr, 30 minutes equilibration to 25° C., each of the two lots): 2.7%
- solubility ([4]; 5° C.): ~6.4 mg/mL (≈ 26.2 mM)
- solubility ([4]; 25° C.): ~14 mg/mL (≈ 57.3 mM)
- degradation on frozen storage ([5]; reconstituted with cold Water for Injection, stored frozen, for at least 7 days): no significant degradation
- Degradation Rate ([5]; suspension reconstituted with cold Water for Injection, stored refrigerated): about 0.12 % w/w per hour
- Degradation Rate ([6]; Solution, 2° C. to 8° C.): 0.7% per hour
- Degradation Rate ([6]; Solution, 25° C.): 2.8% per hour
- Degradation Rate ([6]; Suspension, 2° C. to 8° C.): 0.1% per hour
- Degradation Rate ([6]; Suspension, 25° C.): 2.5% per hour
- survival and time to AML transformation or death (higher-risk MDS): significantly prolonged survival and time to AML transformation or death

Compound: N=C(NC=O)NC(=O)N[C@@H]1O[C@H](CO)[C@@H](O)[C@H]1O [primary degradation product, N-formylguanyribosylurea]
- activity relative to 5-azacytidine (leukemic mouse model; dosed at about 240 mg/m^2): about 25%
- toxicity relative to 5-azacytidine (leukemic mouse model; dosed at about 240 mg/m^2): about 25%

Compound: NC(N)=NC(=O)N[C@@H]1O[C@H](CO)[C@@H](O)[C@H]1O [secondary degradation product, guanylribosylurea]
- activity (leukemic mouse model; dosed at 1440 mg/m^2): neither activity nor toxicity
- toxicity (leukemic mouse model; dosed at 1440 mg/m^2): neither activity nor toxicity
